This passage reports IC50 results from US7030125B2, “Isothiazole and isoxazole compounds as transforming growth factor (TGF) inhibitors” (Pfizer, Inc., priority 2002, dated 2006).

For the experiment, the target named is T1, ALK-5 (TβRI) (Homo sapiens, UniProt P36897).
T1 construct: using either the kinase domain of ALK5 with Smad3 as substrate; GST
T1 sequence (P36897 205-495 limits assumed): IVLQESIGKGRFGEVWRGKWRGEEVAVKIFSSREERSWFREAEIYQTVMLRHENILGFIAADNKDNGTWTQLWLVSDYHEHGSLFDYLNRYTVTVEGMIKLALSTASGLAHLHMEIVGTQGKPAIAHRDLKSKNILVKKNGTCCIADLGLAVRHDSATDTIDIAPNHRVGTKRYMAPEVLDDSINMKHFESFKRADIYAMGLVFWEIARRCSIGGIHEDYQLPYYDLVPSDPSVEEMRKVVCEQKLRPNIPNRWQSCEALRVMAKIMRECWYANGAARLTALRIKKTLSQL
Briefly: ALK-5 (TβRI) Kinase Assay. Type of experiment: biochemical. As to conditions: GST-ALK5 with GST-Smad3 as substrate; read-out: TβRIIC50 value. On the procedure: The kinase assays were performed with 65 nM GST-ALK5 and 84 nM GST-Smad3 in 50 mM HEPES, 5 mM MgCl2, 1 mM CaCl2, 1 mM dithiothreitol, and 3_M ATP. Reactions were incubated with 0.5_Ci of [33 P]_ATP for 3 h at 30° C. Phosphorylated protein was captured on P-81 paper (Whatman, Maidstone, England), washed with 0.5% phosphoric acid, and counted by liquid scintillation. Alternatively, Smad3 or Smad1 protein was also coated onto FlashPlate Sterile Basic Microplates (PerkinElmer Life Sciences, Boston, Mass.). Kinase assays were then performed in Flash-Plates with same assay conditions using either the kinase domain of ALK5 with Smad3 as substrate or the kinase domain of ALK6 (BMP receptor) with Smad1 as substrate. Plates were washed three times with phosphate buffer and counted by TopCount (Packard Bio-science, Meriden, Conn.). (Laping, N.J. et al. Molecular Pharmacology 62:58–64 (2002)).

Take `COc1ccc2nccc(-c3conc3-c3cccc(C)n3)c2c1` [Example 5, 6-Methoxy-4-[3-(6-methyl-pyridin-2-yl)-isoxazol-4-yl]-quinoline]: the IC50 is roughly 118 nM.
